Several values for one entry are separate records, joined by “and”; a condition that tells them apart may be missing. Equal values may be shown once. Read-outs that look alike come from different tables or passages of the source.
What was measured:
CYP3A4 [1] = target: T1, CYP3A4 (Homo sapiens (Human), UniProt P08684); assay: Extracellular cytochrome P450 inhibition (microsomes); format: in vitro ADME; details: concentrations up to and exceeding 40 μM
CYP2C9 [2] = target: T2, CYP2C9 (Homo sapiens (Human), UniProt P11712); assay: Cellular cytochrome P450 induction in cryopreserved human hepatocytes; details: tested at 10 μM, diclofenac substrate
[3] = Thermodynamic aqueous solubility by HPLC; format: physicochemical; details: water
Protocol: The suspension was equilibrated at 25° C. for 24 hours then the pH was measured. The suspension was then filtered through a glass fibre C filter into a 96 well plate. […] Quantitation was by HPLC with reference to a standard solution of approximately 0.1 mg.ml^−1 in DMSO. Different volumes of the standard, diluted and undiluted sample solutions were injected.
Analysis was performed on an Agilent HP1100 series system equipped with a diode array detector and using ChemStation software vB.02.01-SR1.

CYP1A2 = CYP1A2 (Homo sapiens (Human), UniProt P05177); assay: Extracellular cytochrome P450 inhibition (microsomes); format: in vitro ADME; details: concentrations up to and exceeding 40 μM
Protocol: Aliquots of this mixture (89 μL) were delivered to each well of a 96-well polypropylene plate which contained an aliquot of inhibitor (1 μL). Final solvent concentrations were 1% (v/v) or less. Incubations were commenced with the addition of 10 μL β-NADPH (10 mM stock) to a final volume of 100 μL. […] Samples were centrifuged, and supernatant was transferred for LC-MS analysis.

CYP2D6 = CYP2D6 (Homo sapiens (Human), UniProt P10635); assay: as above; format: in vitro ADME; details: concentrations up to and exceeding 40 μM
LTB4 in Rat Whole Blood = assay: Rat whole blood LTB4 inhibition assay; format: cell-based; details: individual tests 1-5
CYP2C9 [4] = target: T2, CYP2C9; assay: Extracellular cytochrome P450 inhibition (microsomes); format: in vitro ADME; details: concentrations up to and exceeding 40 μM
[5] = Phase I study: pharmacokinetics after single and multiple oral doses; format: in vivo; details: human, plasma
From the text: Study Design: Single center, double-blind, randomized, placebo-controlled, single ascending dose followed by multiple ascending dose study.
Sample Size: (1) Single Dose Phase: eight (8) subjects (6 active, 2 placebo) per dose level; up to 5 dose levels are planned (a total of 40 subjects if all 5 dose levels are completed); and (2) Multiple Dose Phase: eight (8) subjects (6 active, 2 placebo) per dose level; up to 4 dose levels are planned (a total of 32 subjects if all 4 dose levels are completed).
Formulations: Compound 2 was supplied as an oral powder for reconstitution. Placebo solution matched. […] The placebo differed only in the absence of the active.
The following dosing cohorts were used:
Routes of Administration: All doses were administered orally with approximately 100 mL of water rinse. Subjects were fasted for at least 8 hours prior to dosing and for 2 hours after dosing. For BID dosing in the Multiple Dose Phase, when applicable, subjects were fasted for at least 2 hours prior to the second daily dose.
Plasma concentrations of Compound 1 were determined using a validated LC/MS method. Whole blood ionophore-stimulated leukotriene LTB4 and urinary LTE4 production were assayed by ELISA and mass spectrometry, respectively.
Analysis of Samples: Concentrations of Compound 1 was determined in plasma samples collected from subjects. Similarly, concentrations of LTB4 in plasma and urinary LTE4 were determined in blood and urine samples collected.

[6] = Single-dose pharmacokinetics in beagle dogs; format: in vivo, female beagle dogs; details: for Cmax: Oral
human FLAP = human FLAP (Homo sapiens (Human), UniProt P20292); assay: FLAP binding assay (membrane radioligand binding); details: read-out: IC50, inhibition of FLAP radioligand binding; individual tests 1-8
CYP3A4 [7] = target: T1, CYP3A4; assay: Cellular cytochrome P450 induction in cryopreserved human hepatocytes; details: tested at 10 μM, midazolam substrate
[8] = Plasma binding (equilibrium dialysis); format: in vitro ADME; details: read-out: % Bound (converted)
Protocol: Experiments were performed using equilibrium dialysis.

[9] = oral, 10 mg, multiple dose 10 mg, Day 1
[10] = oral, 10 mg, multiple dose 10 mg, Day 11
[11] = oral, 50 mg, multiple dose 50 mg, Day 1
[12] = oral, 50 mg, multiple dose 50 mg, Day 11
[13] = oral, 150 mg, multiple dose 150 mg, Day 1
[14] = oral, 150 mg, multiple dose 150 mg, Day 11
[15] = oral, 450 mg, multiple dose 450 mg, Day 1
[16] = oral, 450 mg, multiple dose 450 mg, Day 11
[17] = po, 50 mg, single dose 50 mg, oral solution
[18] = po, 150 mg, single dose 150 mg, oral solution
[19] = po, 300 mg, single dose 300 mg, oral solution
[20] = po, 600 mg, single dose 600 mg, oral solution
[21] = po, 1000 mg, single dose 1000 mg, oral solution
[22] = female, beagle, dog, plasma, po, 5 mg/kg, 0.5% Methylcellulose, Fasted
[23] = female, beagle, dog, plasma, po, 5 mg/kg, 0.5% Methylcellulose, Fed
[24] = female, beagle, dog, plasma, po, 6.5 mg/kg, 50 mg Pill, Fasted
[25] = female, beagle, dog, plasma, po, 6.5 mg/kg, 50 mg Pill, Fed

Sequence of human FLAP (P20292 whole entry): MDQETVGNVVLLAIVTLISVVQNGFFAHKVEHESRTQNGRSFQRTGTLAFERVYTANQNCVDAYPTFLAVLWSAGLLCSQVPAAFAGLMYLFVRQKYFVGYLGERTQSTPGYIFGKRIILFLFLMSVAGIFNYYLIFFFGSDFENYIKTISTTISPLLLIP
T1 sequence (P08684 whole entry, looked up): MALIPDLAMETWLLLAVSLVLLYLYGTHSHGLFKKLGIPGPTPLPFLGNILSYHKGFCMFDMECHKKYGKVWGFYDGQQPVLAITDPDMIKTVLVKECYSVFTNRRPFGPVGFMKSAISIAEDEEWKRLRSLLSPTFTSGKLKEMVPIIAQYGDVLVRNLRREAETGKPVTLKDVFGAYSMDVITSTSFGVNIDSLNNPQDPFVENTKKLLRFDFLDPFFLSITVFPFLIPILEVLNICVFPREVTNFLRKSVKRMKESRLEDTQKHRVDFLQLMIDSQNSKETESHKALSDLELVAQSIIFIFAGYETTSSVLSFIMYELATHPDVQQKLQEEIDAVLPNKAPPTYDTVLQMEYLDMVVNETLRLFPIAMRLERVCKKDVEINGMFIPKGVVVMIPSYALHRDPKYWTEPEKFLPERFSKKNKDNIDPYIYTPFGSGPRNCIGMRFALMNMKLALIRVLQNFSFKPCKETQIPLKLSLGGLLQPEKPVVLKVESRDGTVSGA
T2 sequence (P11712 whole entry, looked up): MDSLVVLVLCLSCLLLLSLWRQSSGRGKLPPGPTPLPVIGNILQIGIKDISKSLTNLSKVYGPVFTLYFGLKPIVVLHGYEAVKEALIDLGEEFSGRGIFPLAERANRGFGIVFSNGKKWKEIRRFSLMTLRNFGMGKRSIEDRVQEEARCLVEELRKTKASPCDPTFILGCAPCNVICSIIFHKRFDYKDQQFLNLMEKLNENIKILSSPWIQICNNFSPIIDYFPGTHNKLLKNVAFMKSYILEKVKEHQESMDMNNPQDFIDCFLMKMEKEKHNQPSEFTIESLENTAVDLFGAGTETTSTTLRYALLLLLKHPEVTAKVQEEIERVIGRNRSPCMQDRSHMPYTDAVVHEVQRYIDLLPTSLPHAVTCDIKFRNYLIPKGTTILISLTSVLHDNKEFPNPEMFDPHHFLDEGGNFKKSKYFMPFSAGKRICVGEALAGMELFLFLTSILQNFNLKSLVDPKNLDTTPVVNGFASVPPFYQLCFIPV
Sequence of CYP1A2 (P05177 whole entry): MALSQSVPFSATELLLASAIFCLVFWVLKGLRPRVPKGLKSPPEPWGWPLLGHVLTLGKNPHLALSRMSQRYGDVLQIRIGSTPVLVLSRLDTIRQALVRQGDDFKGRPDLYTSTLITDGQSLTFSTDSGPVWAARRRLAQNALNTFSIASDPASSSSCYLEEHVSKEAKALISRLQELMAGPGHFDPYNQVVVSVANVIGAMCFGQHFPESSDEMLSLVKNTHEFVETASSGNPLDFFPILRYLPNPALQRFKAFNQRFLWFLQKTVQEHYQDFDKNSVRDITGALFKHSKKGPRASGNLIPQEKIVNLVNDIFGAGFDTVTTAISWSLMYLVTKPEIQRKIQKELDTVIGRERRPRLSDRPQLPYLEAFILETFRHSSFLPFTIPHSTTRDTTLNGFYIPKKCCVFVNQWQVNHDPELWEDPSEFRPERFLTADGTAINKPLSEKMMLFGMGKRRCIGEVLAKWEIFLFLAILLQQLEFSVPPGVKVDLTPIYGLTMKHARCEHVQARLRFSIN
Sequence of CYP2D6 (P10635 whole entry): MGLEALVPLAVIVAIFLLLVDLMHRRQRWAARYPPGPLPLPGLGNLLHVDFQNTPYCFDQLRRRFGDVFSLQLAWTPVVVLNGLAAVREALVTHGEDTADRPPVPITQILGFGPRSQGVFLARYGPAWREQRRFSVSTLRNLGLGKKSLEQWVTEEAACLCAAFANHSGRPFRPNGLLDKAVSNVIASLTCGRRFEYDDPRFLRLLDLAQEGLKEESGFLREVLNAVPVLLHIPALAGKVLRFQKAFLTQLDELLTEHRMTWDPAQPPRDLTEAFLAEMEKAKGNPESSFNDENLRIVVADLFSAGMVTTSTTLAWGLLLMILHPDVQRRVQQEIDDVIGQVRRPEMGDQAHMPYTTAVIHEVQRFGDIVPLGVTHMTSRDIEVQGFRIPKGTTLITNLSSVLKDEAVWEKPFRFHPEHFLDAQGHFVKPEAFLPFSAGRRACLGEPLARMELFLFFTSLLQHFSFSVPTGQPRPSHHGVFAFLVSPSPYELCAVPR

Compound: CCOc1ccc(-c2ccc(Cn3c(CC(C)(C)C(=O)[O-])c(SC(C)(C)C)c4cc(OCc5ccc(C)cn5)ccc43)cc2)cn1.[Na+] [Compound 2, sodium 3-[3-(tert-butylsulfanyl)-1-[4-(6-ethoxy-pyridin-3-yl)benzyl]-5-(5-methyl-pyridin-2-yl-methoxy)-1H-indol-2-yl]-2,2-dimethylpropionate]
- apparent inhibition (CYP3A4 [1]): No apparent inhibition
- CYP2C9 induction (CYP2C9 [2]): No apparent induction
- pH of unfiltered saturated solution ([3]; 25° C.): above 9
- solubility at 24 h ([3]; 25 °C, thermodynamic from solid, both batches): > 10000 µg/mL
- apparent inhibition (CYP1A2): No apparent inhibition
- apparent inhibition (CYP2D6): No apparent inhibition
- IC50 (LTB4 in Rat Whole Blood): 302 nM and 160 nM and 380 nM and 212 nM and 141 nM
- apparent inhibition (CYP2C9 [4]): No apparent inhibition
- Cmax [5, 9]: 70 ± 10 nM
- Tmax [5, 9]: 4 ± 3.1 h
- AUC(0-t) ([5]; oral, 10 mg, multiple dose 10 mg, Day 1, read-out: AUClast): 1.1 ± 0.2 µM·h
- half-life ([5]; oral, 10 mg, multiple dose 10 mg, Day 1, read-out: t½ (converted)): 32 ± 23 h
- Cmax [5, 10]: 130 ± 50 nM
- Tmax [5, 10]: 10 ± 6.9 h
- AUC(0-t) ([5]; oral, 10 mg, multiple dose 10 mg, Day 11, read-out: AUClast): 2.4 ± 1.1 µM·h
- half-life ([5]; oral, 10 mg, multiple dose 10 mg, Day 11, read-out: t½ (converted)): 50 ± 41 h
- Cmax [5, 11]: 600 ± 200 nM
- Tmax [5, 11]: 4.2 ± 3 h
- AUC(0-t) ([5]; oral, 50 mg, multiple dose 50 mg, Day 1, read-out: AUClast): 8.3 ± 2.9 µM·h
- half-life ([5]; oral, 50 mg, multiple dose 50 mg, Day 1, read-out: t½ (converted)): 19 ± 10 h
- Cmax [5, 12]: 900 ± 100 nM
- Tmax [5, 12]: 3.2 ± 2 h
- AUC(0-t) ([5]; oral, 50 mg, multiple dose 50 mg, Day 11, read-out: AUClast): 13.5 ± 3.4 µM·h
- half-life ([5]; oral, 50 mg, multiple dose 50 mg, Day 11, read-out: t½ (converted)): 25 ± 11 h
- Cmax [5, 13]: 1400 ± 700 nM
- Tmax [5, 13]: 2.3 ± 0.8 h
- AUC(0-t) ([5]; oral, 150 mg, multiple dose 150 mg, Day 1, read-out: AUClast): 16 ± 6.8 µM·h
- half-life ([5]; oral, 150 mg, multiple dose 150 mg, Day 1, read-out: t½ (converted)): 16 ± 7.7 h
- Cmax [5, 14]: 3000 ± 1200 nM
- Tmax [5, 14]: 2 h
- AUC(0-t) ([5]; oral, 150 mg, multiple dose 150 mg, Day 11, read-out: AUClast): 33 ± 16 µM·h
- half-life ([5]; oral, 150 mg, multiple dose 150 mg, Day 11, read-out: t½ (converted)): 19 ± 13 h
- Cmax [5, 15]: 7300 ± 6000 nM
- Tmax [5, 15]: 2 h
- AUC(0-t) ([5]; oral, 450 mg, multiple dose 450 mg, Day 1, read-out: AUClast): 57 ± 39 µM·h
- half-life ([5]; oral, 450 mg, multiple dose 450 mg, Day 1, read-out: t½ (converted)): 12 ± 4 h
- Cmax [5, 16]: 9300 ± 5400 nM
- Tmax [5, 16]: 2 h
- AUC(0-t) ([5]; oral, 450 mg, multiple dose 450 mg, Day 11, read-out: AUClast): 76 ± 33 µM·h
- half-life ([5]; oral, 450 mg, multiple dose 450 mg, Day 11, read-out: t½ (converted)): 14 ± 4 h
- Cmax [5, 17]: 570 ± 300 nM
- Tmax [5, 17]: 2.2 ± 0.4 h
- AUC(0-t) ([5]; po, 50 mg, single dose 50 mg, oral solution, read-out: AUC0-24): 6.5 ± 2.2 µM·h
- half-life ([5]; po, 50 mg, single dose 50 mg, oral solution, read-out: t1/2 (converted)): 12.8 ± 2.9 h
- Cmax [5, 18]: 2200 ± 500 nM
- Tmax [5, 18]: 2.3 ± 0.5 h
- AUC(0-t) ([5]; po, 150 mg, single dose 150 mg, oral solution, read-out: AUC0-24): 21.7 ± 6.1 µM·h
- half-life ([5]; po, 150 mg, single dose 150 mg, oral solution, read-out: t1/2 (converted)): 11.1 ± 2.8 h
- Cmax [5, 19]: 3000 ± 1500 nM
- Tmax [5, 19]: 2.7 ± 1.5 h
- AUC(0-t) ([5]; po, 300 mg, single dose 300 mg, oral solution, read-out: AUC0-24): 23.6 ± 5.9 µM·h
- half-life ([5]; po, 300 mg, single dose 300 mg, oral solution, read-out: t1/2 (converted)): 9.8 ± 2.5 h
- Cmax [5, 20]: 11200 ± 7000 nM
- Tmax [5, 20]: 2.3 ± 0.5 h
- AUC(0-t) ([5]; po, 600 mg, single dose 600 mg, oral solution, read-out: AUC0-24): 90 ± 50 µM·h
- half-life ([5]; po, 600 mg, single dose 600 mg, oral solution, read-out: t1/2 (converted)): 14.1 ± 6.8 h
- Cmax [5, 21]: 18200 ± 7600 nM
- Tmax [5, 21]: 2 h
- AUC(0-t) ([5]; po, 1000 mg, single dose 1000 mg, oral solution, read-out: AUC0-24): 110 ± 49 µM·h
- half-life ([5]; po, 1000 mg, single dose 1000 mg, oral solution, read-out: t1/2 (converted)): 8.3 ± 1.1 h
- Cmax ([6]; 0.5% Methylcellulose, 5 mg/kg, Fasted): 12400 ng/mL
- reduction in oral bioavailability and dose-adjusted AUC, IR pill compared to oral suspension ([6]; fasted or fed comparator dogs): ~30%
- AUC(0-inf) [6, 22]: 67800 ng·h/mL
- Tmax [6, 22]: 2 h
- bioavailability [6, 22]: 52%
- AUC(0-inf) [6, 23]: 24300 ng·h/mL
- Tmax [6, 23]: 1.3 h
- bioavailability [6, 23]: 19%
- Cmax ([6]; female, beagle, dog, plasma, po, 5 mg/kg, 0.5% Methylcellulose, 5 mg/kg, Fed, read-out: Cmax): 3700 ng/mL
- AUC(0-inf) [6, 24]: 41000 ng·h/mL
- Tmax [6, 24]: 2 h
- bioavailability [6, 24]: 24%
- AUC(0-inf) [6, 25]: 14400 ng·h/mL
- Tmax [6, 25]: 1.7 h
- bioavailability [6, 25]: 8.4%
- Cmax ([6]; female, beagle, dog, plasma, po, 6.5 mg/kg, 50 mg Pill, 6.5 mg/kg, Fasted, read-out: Cmax): 7600 ng/mL
- Cmax ([6]; female, beagle, dog, plasma, po, 6.5 mg/kg, 50 mg Pill, 6.5 mg/kg, Fed, read-out: Cmax): 3200 ng/mL
- half-life ([6]; female, beagle, dog, plasma, IV, 4:1 PEG400:Water, 0.67 mg/kg, Fasted): 13 h
- IC50 (human FLAP): 2.8 nM and 2.2 nM
- CYP3A4 induction (CYP3A4 [7]): No apparent induction
- fraction unbound at 10 μM ([8]; human plasma): 0.005
- fraction unbound at 10 μM ([8]; mixed breeds, dog plasma): 0.003
- fraction unbound at 10 μM ([8]; mixed breeds, rat plasma): 0.002
